“And” between values parts separate entries of the source, which are not always exact repeats. Equal values may be shown once. Read-outs that look alike come from different tables or passages of the source.
Experiments:
TGR [1] = target: T1, TGR (Schistosoma mansoni, UniProt Q962Y6); test: NADPH dependence of inhibition; format: biochemical; design: unit not given here; conditions: panel b, replicates; for Rate, no NADPH: preincubation no NADPH; for Rate, with NADPH: preincubation with NADPH
T1 construct: made in house
T1 sequence (Q962Y6 1-598): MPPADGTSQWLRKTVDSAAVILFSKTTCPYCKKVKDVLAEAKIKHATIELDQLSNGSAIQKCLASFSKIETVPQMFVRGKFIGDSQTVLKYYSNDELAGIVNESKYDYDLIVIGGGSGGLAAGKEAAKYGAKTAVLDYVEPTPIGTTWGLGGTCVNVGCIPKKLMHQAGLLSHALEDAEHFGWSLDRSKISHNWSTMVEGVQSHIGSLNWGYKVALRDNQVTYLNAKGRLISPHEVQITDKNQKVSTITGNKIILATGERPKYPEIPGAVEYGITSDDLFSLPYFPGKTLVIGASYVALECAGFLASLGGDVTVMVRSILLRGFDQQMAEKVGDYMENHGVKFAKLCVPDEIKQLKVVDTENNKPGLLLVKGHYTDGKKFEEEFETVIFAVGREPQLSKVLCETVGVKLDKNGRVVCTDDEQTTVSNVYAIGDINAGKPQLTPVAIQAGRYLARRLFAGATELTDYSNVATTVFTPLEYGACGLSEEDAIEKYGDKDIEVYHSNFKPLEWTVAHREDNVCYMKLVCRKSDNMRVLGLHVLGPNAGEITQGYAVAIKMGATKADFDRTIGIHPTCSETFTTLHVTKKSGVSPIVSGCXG
Experimental: TGR was incubated at room temperature with inhibitor in the presence or absence of 100 µM NADPH for 15 min. DTNB (3 mM) and NADPH (100 µM) were added, and the reaction was monitored at A412 for 5 min to determine reaction rate. The assay was done in triplicate.

TGR [2] = target: T1, TGR; format: biochemical, S. mansoni; conditions: for mode of inhibition (NADPH varied): steady state
Experimental: Master mixes with varying concentrations of NADPH were made, each with 2 nM TGR in reaction buffer. Inhibitor (2 µl) was added to a 96 well microplate in triplicate for each NADPH and inhibitor concentration, and 192 µl of the master buffer was added to each well. The reaction incubated for 15 min and 6 µl of 50 mM DTNB was added to each well. The kinetic rate was measured at A412 for 5 min.

TGR [3] = target: T2, TGR (Schistosoma mansoni, UniProt Q962Y6, X597U); test: NADPH consumption (oxidase activity); format: biochemical, S. mansoni; conditions: replicates
T2 construct: made in house
In short: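 Enzyme (500 nM) preincubated 30 min with compound (TRi-1, Stattic 50 µM; AF 20 µM) and 100 µM NADPH, desalted, then mixed with 100 µM NADPH; NADPH consumption read at 340 nm. Other compounds (50 µM) run without desalting, preincubation 30 min or 2 h.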

[4] = system: S. mansoni adult worms in mice; test: Schistosomicidal efficacy in infected mice, adult worms (42 d.p.i.); format: in vivo; conditions: for Egg burden, Treated, individual mice / Worm burden, Treated, individual mice: Adult worm, listed as 9VP173; for Egg burden, Treated, individual mice: eggs per 50 mg liver (Fig. 6); for decrease in egg burden / decrease in worm burden: mice
Experimental: To assess the efficacy of the compounds in vivo against juvenile and adult worms, five female Swiss-Webster mice were randomly assigned for the control and experiment groups using a randomization tool embedded in GraphPad Prism. Mice were percutaneously exposed for 1 h to about 80 S. mansoni cercariae. Three- and six-weeks post infection, respectively, for juvenile and adult worms, mice were treated depending on their weight with formulations of the compounds, while the control mice received only the vehicle. Compounds were formulated with 10% DMSO and 10% Tween-80, and vortexed to obtain a uniform mixture. The mixture was sonicated twice for 5 min each time using a digital ultrasonic cleaner heated to 50 °C. Sodium chloride 0.9% (80% normal saline) was added to the mixture, briefly vortexed and sonicated one more time using the same conditions as previous. The investigators were blinded by which group of mice received a treatment and the vehicle, as injection was done by technicians from the Comparative Research Center of Rush University Medical Center. Using a 26 G, 3/8 in intradermal bevel needle, each mouse was administered intraperitoneally with 100 µl of the formulated compound suspension at 50 mg/kg, 100 mg/kg and 200 mg/kg. Mice treated three weeks post infection for juvenile worms were euthanized three weeks post treatment and mice treated six weeks post infection were euthanized one week post treatment with 0.018 ml of Euthasol and 5.85 mg/ml heparin and perfused. The mesenteric and hepatic portal veins of the mice were carefully scanned under the microscope to extract any remaining S. mansoni adult worms and worm burdens were determined. Egg burden was determined by weighing 50 mg of liver tissue from each of treated and control mice. The liver tissues were digested with 5% KOH at 37 °C overnight and washed twice with PBS. The number of eggs per 50 mg of liver tissue was determined using a Keyence BZ-X800 microscope using the egg autofluorescence.

[5] = inhibitor 3 µM, NADPH 3 (unit not given)
[6] = inhibitor 3 µM, NADPH 10 (unit not given)
[7] = inhibitor 3 µM, NADPH 30 (unit not given)
[8] = inhibitor 3 µM, NADPH 100 (unit not given)
[9] = inhibitor 3 µM, NADPH 300 (unit not given)
[10] = inhibitor 10 µM, NADPH 3 (unit not given)
[11] = inhibitor 10 µM, NADPH 10 (unit not given)
[12] = inhibitor 10 µM, NADPH 30 (unit not given)
[13] = inhibitor 10 µM, NADPH 100 (unit not given)
[14] = inhibitor 10 µM, NADPH 300 (unit not given)
[15] = inhibitor 30 µM, NADPH 3 (unit not given)
[16] = inhibitor 30 µM, NADPH 10 (unit not given)
[17] = inhibitor 30 µM, NADPH 30 (unit not given)
[18] = inhibitor 30 µM, NADPH 100 (unit not given)
[19] = inhibitor 30 µM, NADPH 300 (unit not given)
[20] = inhibitor 0.6 µM, NADPH 10 (unit not given)
[21] = inhibitor 0.6 µM, NADPH 30 (unit not given)
[22] = inhibitor 0.6 µM, NADPH 100 (unit not given)
[23] = inhibitor 0.6 µM, NADPH 300 (unit not given)
[24] = 1 x 100 mg/kg i.p. at 42 d.p.i.
[25] = 1 x 200 mg/kg i.p. at 42 d.p.i.

SMILES	Rate, no NADPH (TGR [1])	Rate, with NADPH (TGR [1])	Vmax (TGR [2]; 10 µM fast inhibitor)	Vmax (TGR [2]; 30 µM fast inhibitor)	Rate, single replicate (TGR [2]; [11])	avg rate (TGR [2]; [11])	Rate, single replicate (TGR [2]; [12])	avg rate (TGR [2]; [12])	Rate, single replicate (TGR [2]; [13])	avg rate (TGR [2]; [13])	Rate, single replicate (TGR [2]; [14])	avg rate (TGR [2]; [14])	Rate, single replicate (TGR [2]; [16])	avg rate (TGR [2]; [16])	Rate, single replicate (TGR [2]; [17])	avg rate (TGR [2]; [17])	Rate, single replicate (TGR [2]; [18])	avg rate (TGR [2]; [18])	Rate, single replicate (TGR [2]; [19])	avg rate (TGR [2]; [19])	further results
Cc1oc(C2CCCCC2)nc1C(=O)N[C@@H]1C[C@@H]2C[C@H]([C@H]1C)C2(C)C [Compound 7]	0.05983 and 0.05966 and 0.05987	0.003086 and 0.003742 and 0.002131	0.023 ± 0.0006 ΔA412/min	0.005 ± 0.0004 ΔA412/min	0.014 and 0.01379 and 0.01325	0.01368	0.01713 and 0.02008	0.01811	0.02098 and 0.02124 and 0.02207	0.02143	0.009276 and 0.01989 and 0.01984	0.01634	0.004132 and 0.003931 and 0.003739	0.003934	0.004888 and 0.004427 and 0.004285	0.004533	0.005567 and 0.005953 and 0.005104	0.005541	0.006433 and 0.00613 and 0.007161	0.006575	Vmax (TGR [2]; 3 µM fast inhibitor): 0.037 ± 0.0031 ΔA412/min; Rate, single replicate (TGR [2]; [5]): 0.004865 and 0.004625 and 0.005262; avg rate (TGR [2]; [5]): 0.004917; Rate, single replicate (TGR [2]; [6]): 0.01865 and 0.01872 and 0.01883; avg rate (TGR [2]; [6]): 0.01873; Rate, single replicate (TGR [2]; [7]): 0.02703 and 0.02752 and 0.02778; avg rate (TGR [2]; [7]): 0.02744; Rate, single replicate (TGR [2]; [8]): 0.03299 and 0.03283 and 0.0326; avg rate (TGR [2]; [8]): 0.03281; Rate, single replicate (TGR [2]; [9]): 0.02949 and 0.03026 and 0.03016; avg rate (TGR [2]; [9]): 0.02997; Rate, single replicate (TGR [2]; [10]): 0.006166 and 0.006168 and 0.006055; avg rate (TGR [2]; [10]): 0.00613; Rate, single replicate (TGR [2]; [15]): 0.002823 and 0.003641; avg rate (TGR [2]; [15]): 0.003232; mode of inhibition (NADPH varied) (TGR [2]): uncompetitive inhibition; mode of inhibition (NADPH varied) (TGR [2]; listed as 7 (9VP108)): uncompetitive behavior; NADPH consumption (rate/ΔOD340) (TGR [3]): -0.0008479 and -0.0008204 and -0.0008408
C[C@@H]1[C@H]2C[C@@H](C[C@H]1NCc1nc3ccccc3n1C1CCCCCC1)C2(C)C [Compound 8]	0.045 and 0.0455	0.006 and 0.0015 and 0.0024	0.0091 ± 0.0007 ΔA412/min	0.0067 ± 7E-5 ΔA412/min	0.007669 and 0.006838 and 0.009131	0.007879	0.005991 and 0.006991 and 0.01256	0.008514	0.006895 and 0.007479 and 0.009519	0.007964	0.01018 and 0.009394 and 0.01058	0.01005	0.00609 and 0.005955 and 0.006026	0.006024	0.006205 and 0.005206 and 0.007748	0.006386	0.006944 and 0.006279 and 0.006539	0.006587	0.005974 and 0.006732 and 0.007751	0.006819	Vmax (TGR [2]; 0.6 µM fast inhibitor): 0.05 ± 0.0017 ΔA412/min; Rate, single replicate (TGR [2]; [20]): 0.02362 and 0.02203 and 0.02232; avg rate (TGR [2]; [20]): 0.02266; Rate, single replicate (TGR [2]; [21]): 0.03949 and 0.03661 and 0.03778; avg rate (TGR [2]; [21]): 0.03796; Rate, single replicate (TGR [2]; [22]): 0.04159 and 0.0438 and 0.04407; avg rate (TGR [2]; [22]): 0.04315; Rate, single replicate (TGR [2]; [23]): 0.04835 and 0.04882 and 0.0495; avg rate (TGR [2]; [23]): 0.04889; mode of inhibition (NADPH varied) (TGR [2]): uncompetitive inhibition; mode of inhibition (NADPH varied) (TGR [2]; listed as 8 (9VP173)): uncompetitive behavior; Egg burden, Treated, individual mice ([4]; 1 x 100 mg/kg): 2302 and 2373 and 2391 and 2292 and 2275; Worm burden, Treated, individual mice ([4]; 1 x 100 mg/kg): 24 and 25 and 21 and 15; Egg burden, Treated, individual mice ([4]; 1 x 200 mg/kg): 2221 and 2235 and 2223 and 2217 and 2241; Worm burden, Treated, individual mice ([4]; 1 x 200 mg/kg): 24 and 29 and 27 and 28 and 23; decrease in egg burden [4, 24]: 2.1%; decrease in worm burden [4, 24]: 13.5%; decrease in egg burden [4, 25]: 7% and 6.8%; decrease in worm burden [4, 25]: 19% and 18.9%

From article PMC10287695, “Non-covalent inhibitors of thioredoxin glutathione reductase with schistosomicidal activity in vivo” (Nature Communications, 2023)
